{"source": "patent US6339100B1", "about": "“Methods for inhibiting mastocytosis” (The Trustees of Columbia University in the City of New York, priority 1999, dated 2002)", "key": {"[1]": {"test_system": "platelet-derived growth factor receptor", "conditions": "cited from earlier work"}, "[2]": {"test_system": "wild-type KIT", "assay": "Phosphorylation of wild-type KIT expressed in COS cells (anti-phosphotyrosine blot)", "type": "cell-based", "conditions": "5 μM, 30 min, SCF 100 ng/ml 10 min", "experimental": "(§1) FIG. 1: Effects of indolinone derivatives on phosphorylation of wild-type and mutant KITs. […] The compound with the structure VII or structure VI are effective against KIT containing an activating juxtamembrane domain mutation in C2 cells.\n(§2) KIT activity was determined by in vitro phosphorylation, as previously described (Ma et al, 1999a). The neoplastic mast cell line C2 and P815 have been previously described (Dunn et al, 1957; Lazarus et al, 1986; DeVinney and Gold, 1990), and their activating c-KIT mutations characterized (Tsujimura et al, 1994; Ma et al, 1999a). To determine cell proliferation and viability, cells from triplicate cultures were stained with trypan blue and counted in a hemocytometer. All experiments were repeated at least three times."}, "[3]": {"target": "T1, KIT with substitution of Tyr for Asp814 (P815 KIT) (Mus musculus, UniProt P05532, D818Y)", "T1 construct": "mutant KITs expressed in C2 and P815 cells; endogenous in cells; host or cells: P815 murine mastocytoma cells", "T1 sequence (P05532 25-975 isoform P05532-2 D814Y)": "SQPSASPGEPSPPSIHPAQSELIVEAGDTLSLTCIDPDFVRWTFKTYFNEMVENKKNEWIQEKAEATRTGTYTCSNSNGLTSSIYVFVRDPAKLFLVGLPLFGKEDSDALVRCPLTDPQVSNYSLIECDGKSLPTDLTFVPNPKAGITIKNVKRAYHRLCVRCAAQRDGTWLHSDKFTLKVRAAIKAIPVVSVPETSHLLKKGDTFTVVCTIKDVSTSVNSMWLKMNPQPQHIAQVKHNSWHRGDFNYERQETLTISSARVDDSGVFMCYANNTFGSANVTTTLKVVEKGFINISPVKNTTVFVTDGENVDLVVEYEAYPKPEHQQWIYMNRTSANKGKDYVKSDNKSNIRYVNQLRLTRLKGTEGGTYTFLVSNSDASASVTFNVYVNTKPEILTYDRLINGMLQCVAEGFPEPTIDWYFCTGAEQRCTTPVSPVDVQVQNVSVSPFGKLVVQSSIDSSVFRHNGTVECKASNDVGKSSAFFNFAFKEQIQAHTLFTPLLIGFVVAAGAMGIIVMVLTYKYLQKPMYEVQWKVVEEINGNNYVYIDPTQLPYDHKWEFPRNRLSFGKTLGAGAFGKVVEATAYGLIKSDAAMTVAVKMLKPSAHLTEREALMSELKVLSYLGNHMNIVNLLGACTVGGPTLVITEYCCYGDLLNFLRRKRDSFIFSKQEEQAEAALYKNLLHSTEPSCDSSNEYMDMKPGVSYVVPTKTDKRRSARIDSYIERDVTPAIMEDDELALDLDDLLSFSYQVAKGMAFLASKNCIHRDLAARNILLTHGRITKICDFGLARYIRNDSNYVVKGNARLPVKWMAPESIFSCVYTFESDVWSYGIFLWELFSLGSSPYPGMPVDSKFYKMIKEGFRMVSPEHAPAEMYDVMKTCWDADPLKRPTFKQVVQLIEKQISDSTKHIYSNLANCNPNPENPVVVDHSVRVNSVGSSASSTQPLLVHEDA", "assay": "Phosphorylation of mutant KIT in P815 cells", "type": "cell-based, murine", "conditions": "40 μM, 30 min", "experimental": "as §1, §2\nFor activating mutations in the kinase domain, the P815 murine mast cell tumor line (Dunn et al, 1957) was examined. P815 c-KIT contains a point mutation resulting in substitution of Tyr for Asp814, the equivalent position of human Asp816, which causes constitutive receptor activation (Tsujimura et al, 1994)."}, "[4]": {"test_system": "P815 cells", "assay": "P815 cell proliferation and viability (trypan blue counting)", "type": "cell-based, murine", "conditions": "treated daily with 10 μM", "experimental": "(§3) FIG. 2: Effects of indolinone derivatives on neoplastic mast cell growth. […] Results (mean±SEM) represent averages of triplicate cultures.\nas §2"}, "[5]": {"target": "insulin receptor (Homo sapiens, UniProt P06213)", "sequence (P06213 28-1382, species assumed)": "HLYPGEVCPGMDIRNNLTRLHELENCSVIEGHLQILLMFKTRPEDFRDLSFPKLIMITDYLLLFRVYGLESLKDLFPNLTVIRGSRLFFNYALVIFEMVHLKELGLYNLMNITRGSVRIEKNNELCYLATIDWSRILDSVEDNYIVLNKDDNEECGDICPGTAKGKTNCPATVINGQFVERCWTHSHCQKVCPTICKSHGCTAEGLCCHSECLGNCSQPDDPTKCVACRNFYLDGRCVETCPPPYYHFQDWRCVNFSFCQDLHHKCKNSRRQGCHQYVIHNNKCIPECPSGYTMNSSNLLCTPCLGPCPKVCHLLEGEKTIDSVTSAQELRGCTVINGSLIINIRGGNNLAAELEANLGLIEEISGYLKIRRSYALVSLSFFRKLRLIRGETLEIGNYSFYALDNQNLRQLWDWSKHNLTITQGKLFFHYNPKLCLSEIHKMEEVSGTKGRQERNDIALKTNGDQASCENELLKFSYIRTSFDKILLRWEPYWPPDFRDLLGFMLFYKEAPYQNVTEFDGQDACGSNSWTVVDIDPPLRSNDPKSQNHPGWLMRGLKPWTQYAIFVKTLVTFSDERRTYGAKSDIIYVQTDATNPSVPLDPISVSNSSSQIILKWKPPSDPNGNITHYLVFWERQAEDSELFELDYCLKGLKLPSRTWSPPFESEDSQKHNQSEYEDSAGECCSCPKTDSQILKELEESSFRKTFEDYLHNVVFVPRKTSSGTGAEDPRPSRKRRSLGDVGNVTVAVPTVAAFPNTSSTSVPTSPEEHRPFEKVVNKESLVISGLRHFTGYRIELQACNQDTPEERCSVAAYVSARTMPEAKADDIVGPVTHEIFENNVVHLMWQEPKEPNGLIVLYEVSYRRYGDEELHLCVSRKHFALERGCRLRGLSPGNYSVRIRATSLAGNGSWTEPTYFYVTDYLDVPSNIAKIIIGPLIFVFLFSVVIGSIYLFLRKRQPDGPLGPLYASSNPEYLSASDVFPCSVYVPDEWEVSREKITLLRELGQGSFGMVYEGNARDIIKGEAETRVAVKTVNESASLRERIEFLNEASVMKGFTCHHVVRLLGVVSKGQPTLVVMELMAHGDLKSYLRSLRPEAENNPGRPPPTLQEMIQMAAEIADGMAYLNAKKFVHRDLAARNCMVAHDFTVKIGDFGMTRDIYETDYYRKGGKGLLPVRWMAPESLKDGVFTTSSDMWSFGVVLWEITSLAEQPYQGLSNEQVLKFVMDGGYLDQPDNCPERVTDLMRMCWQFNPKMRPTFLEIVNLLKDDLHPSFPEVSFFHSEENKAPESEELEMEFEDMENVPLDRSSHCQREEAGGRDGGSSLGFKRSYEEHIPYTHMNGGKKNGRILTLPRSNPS", "conditions": "cited from earlier work"}, "[6]": {"test_system": "KIT with juxtamembrane insertion mutation (C2 KIT)", "assay": "Constitutive phosphorylation of mutant KIT in C2 dog mastocytoma cells", "type": "cell-based", "conditions": "5 μM", "experimental": "as §1, §2\nThe effects of these compounds on constitutive activation of KIT mutants expressed by neoplastic mast cells were then tested. For activating juxtamembrane mutations, the C2 dog mastocytoma cell line was studied (Lazarus et al, 1986; DeVinney and Gold, 1990), in which KIT is constitutively active due to a juxtamembrane insertion mutation (Ma et al, 1999a). […] The effects of these compounds on constitutive phosphorylation of KIT bearing in the juxtamembrane region either deletion of Trp556-Lys557 or substitution of Pro for Leu575, mutations previously identified in dog mastocytomas (Ma et al, 1999a) were also examined."}, "[7]": {"test_system": "fibroblast growth factor receptor", "conditions": "cited from earlier work"}, "[8]": {"test_system": "C2 cells", "assay": "C2 cell proliferation and viability (trypan blue counting)", "type": "cell-based, dog", "conditions": "treated daily with 1 μM", "experimental": "as §3, §2"}}}
{"compound": "O=CN1CCN(c2ccc(/C=C3/C(=O)Nc4ccccc43)cc2)CC1", "note": "[structure VII]", "values": [{"measurement": "inhibition of platelet-derived growth factor receptor", "setting": "[1]", "result": "effective"}, {"measurement": "effect on tyrosine phosphorylation of the wild-type receptor", "setting": "[2]", "result": "substantially reduce"}, {"measurement": "inhibition of phosphorylation of the P815 KIT mutant", "setting": "[3]", "result": "not effectively inhibiting"}, {"measurement": "effect on P815 cell proliferation", "setting": "[4]", "result": "killed"}, {"measurement": "inhibition of insulin receptor", "setting": "[5]", "result": "effective"}, {"measurement": "reduction of the constitutive C2 KIT phosphorylation", "setting": "[6]", "result": "approximately 50%"}, {"measurement": "inhibition of fibroblast growth factor receptor", "setting": "[7]", "result": "effective"}, {"measurement": "effect on C2 cell proliferation", "setting": "[8]", "result": "killed"}]}
